Here are results for one compound from US5395836A, “8-tricycloalkyl xanthine derivatives” (Kyowa Hakko Kogyo Co., Ltd., priority 1993, dated 1995).

Assay [1] has as its target T1, adenosine A1 receptor (Rattus norvegicus, UniProt P25099).
T1 construct: from tissue; host or cells: rat corpus striatum, washed membrane suspension
T1 sequence (P25099 1-326): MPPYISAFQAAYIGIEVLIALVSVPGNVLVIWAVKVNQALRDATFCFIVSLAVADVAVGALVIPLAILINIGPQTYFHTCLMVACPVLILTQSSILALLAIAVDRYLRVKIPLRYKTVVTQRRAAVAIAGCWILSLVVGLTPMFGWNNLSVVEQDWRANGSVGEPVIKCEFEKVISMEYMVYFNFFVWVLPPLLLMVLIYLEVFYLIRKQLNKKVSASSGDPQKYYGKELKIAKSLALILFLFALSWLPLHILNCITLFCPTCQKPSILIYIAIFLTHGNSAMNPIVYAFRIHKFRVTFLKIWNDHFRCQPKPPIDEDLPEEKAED
Kind of assay: Adenosine Receptor Antagonizing Activity (Adenosine A1 Receptor Binding Test). The settings on record: rat corpus striatum; 3H-CHA 1.1 nM; 25° C., 90 min; Cheng-Prusoff. Here is the method: The test was conducted according to the method of Bruns et al. [Proc. Natl. Acad. Sci. U.S.A., 77., 5547 (1980)] with slight modification.
Corpus striatum of a rat was suspended in ice-cooled 50 mM Tris hydroxymethyl aminomethane hydrochloride (Tris HCl) buffer (pH 7.7) by using Polytron homogenizer (manufactured by Kinematicas Co.). The suspension was centrifuged (50,000×g, 10 minutes), and the precipitate was suspended again in the same amount of 50 mM Tris HCl buffer. The suspension was centrifuged under the same conditions, and the final precipitate was suspended once again in 50 mM Tris HCl buffer to give a tissue concentration of 100 mg (wet weight)/ml. The tissue suspension was allowed to stand in the presence of 0.02 unit/mg tissue of adenosine deaminase (manufacture by Sigma Co.) at 37° C. for 30 minutes. The tissue suspension was centrifuged (50,000×g, 10 minutes) and to the obtained precipitates was added 50 mM Tris HCl buffer to give a tissue concentration of 10 mg (wet weight)/ml.
To 1 ml of the tissue suspension thus prepared, were added 50 μl of cyclohexyladenosine labeled with tritium (^3 H-CHA: 27 Ci/mmol, manufactured by New England Nuclear) (final concentration: 1.1 nM), and 50 μl of a test compound. The resulting mixture was allowed to stand at 25° C. for 90 minutes and then rapidly filtered by suction through a glass fiber filter (GF/C, manufactured by Whatman Co.). The filter was immediately washed three times with 5 ml each of ice-cooled 50 mM Tris HCl buffer, and transferred to a vial, and scintillator (EX-H by Wako Pure Chemical Industries, Ltd.) was added thereto. The radioactivity on the filter was determined with a liquid scintillation counter (manufactured by Packard Instrument Co.).
The inhibition rate (Ki value) of the test compound against the binding of A1 receptors (^3 H-CHA binding) was calculated by the equation of Cheng-Prusoff. [formula]

A short description of assay [2]: Diuretic Effect. It counts as in vivo, rat (Wistar). The settings on record: for Increase in amount of K+ excreted Δ(%) / Increase in amount of Na+ excreted Δ(%) / Increase in amount of urine Δ(%): control 0. Here is the method: The experiment was performed by using Wistar rats (male; 150 to 300 g). The rats were starved for 18 hours prior to the administration of a test compound (n=4 to 5). After test compounds were dissolved in 0.4% methanol, 1% dimethylsulfoxide and 0.01N sodium hydroxide/physiological saline, and administered intravenously, the physiological saline (25 ml/kg) was orally administered. Alternatively, test compounds dissolved in the physiological saline (25 ml/kg) was orally administered to the rats. Urine was collected from the rats during 4 hours after the oral administration, and urine volume was measured by a graduated measuring cylinder, and the electrolytes in the urine (Na^+ and K^+) were determined by flame photometer (775 A manufactured by Hitachi, Ltd.).

The nature of assay [3]: Renal-protecting Effect (Glycerol-Induced Renal Failure Model). It counts as in vivo, rat (Wistar). The conditions noted are these: ip, 24 h after glycerol; for Amount of creatinine in blood serum: 4.35 ± 0.23 (compound 3); for Amount of uria nitrogen in blood serum: 139.7 ± 10.2 (compound 3). Here is the method: A renal failure is a state where the renal function is lowered and the homeostasis of a body fluid can be no longer maintained. It is known that an acute renal failure characteristic of uriniferous tubule disorder is caused by subcutaneous or intramuscular injection of glycerol to rats [Can. J. Physiol.
Male Wistar rats were kept deprived of water for 18 hours, and served for the test. A test compound was intraperitoneally administered to the rats (dosage: 0.1 ml/100 g). After 30 minutes, the rats were anesthetized with ether and 50% glycerol was subcutaneously administered (dosage: 0.8 ml/100 g) to the rats, pinching the dorsal skin. Twenty four hours after the administration of glycerol, the rats were anesthetized with ether and 5 ml of blood was collected from the abdominal aorta. The collected blood was allowed to stand for 30 minutes or longer and then centrifuged at 3,000 rpm for 10 minutes, and the amounts of the serum creatinine and the serum urine-nitrogen (UN) were determined by auto analyzer (Olympus AU510) [creatinine test (Jaffe method), UN test (enzyme method); both tests were used in Olympus AU500/550 exclusive reagent […].

Assay [4] is described as follows: Activity on (R)-PIA-Induced Amnesia (step-through passive avoidance). It counts as in vivo, mouse (ddY-strain). The conditions noted are these: oral, amnesia treatment +, n = 15, amnesia control 51.5 ± 17.0. Here is the method: Anti-dementia effect of Compound (I) was determined with (R)-PIA[(R)-N^6 -(2-phenylisopropyl)adenosine]-induced dementia model [Jpn. J. Pharmacol. 52 (Suppl. II), 107P (1990)] As the experimental animal, groups of ddY-strain mice (weighing 20-25 g), each group consisting of fifteen mice, were used. The test was performed with a step-through type passive avoidance apparatus (the bright and dark box).
The bright and dark box was made up of a bright compartment (15×9×11 cm) lighted by 4 W white fluorescent light and a dark compartment (15×14×18 cm). […] In order to give a foot shock, the electric current (0.3 mA: 2 sec) may be passed through the grid floor of the dark compartment.
The compound to be tested was suspended in 0.3% aqueous solution of carboxymethyl cellulose (CMC) and the suspension was orally administered 60 minutes before the acquisition trial (to the normal control group and the amnesia control group which is subjected to the following amnesia treatment, only 0.3% CMC was administered). 30 minutes after the administration of the test compound, 0.3 mg/kg of (R)-PIA was administered intraperitoneally as amnesia-inducing treatment [(R)-PIA was not administered to the normal control group].
The training for acquisition of learning (acquisition trial) was carried out. The rat was introduced into the bright compartment, and after 10 seconds, the guillotine door was opened. The rat in the bright compartment rapidly moved into the dark compartment. As soon as the whole body of the rat entered the dark compartment, the guillotine door was closed and an electric current of 0.3 mA was passed through the grid floor for 2 seconds (foot shock). Immediately after the foot shock, the rat was taken out of the dark compartment.
The test trial for observing the retention and recall of the memory (recall trial) was carried out as follows. Twenty-four hours after the acquisition trial, the rat was placed in the bright compartment and the guillotine door was opened. The length of time before the rat entered the dark compartment (latency) was measured. The latency was measured up to 600 seconds and the latency longer than 600 seconds was recorded as 600 seconds.
The test of significance was carried out by Steel-test.

The term Ki denotes the dissociation constant of the complex between target and ligand, obtained from inhibition or displacement. A higher Ki goes with weaker binding. The compound `CCCn1c(=O)c2[nH]c(C34C[C@H]5CC3C[C@@H](C4)[C@@H]5O)nc2n(CCC)c1=O` (relative stereo) [Compound 3, 8-(Trans-9-hydroxy-3-tricyclo[3.3.1.0^3,7]nonyl)-1,3-dipropylxanthine] returned an inhibitory constant (Ki) in assay [1] of 230 pM. In addition, the “Amount of K+ excreted” value in assay [2] (iv, 3 μg/kg, n = 5, 4 hours, control 1.47 ± 0.31) was found to be 1.24 ± 0.10 mEq/kg. Besides, the “Na+/K+” value in assay [2] (iv, 3 μg/kg, n = 5, 4 hours, control 1.52) was determined as 2.99; in assay [2] (po, 0.01 mg/kg, 4 hours, control 1.00), 2.16; in assay [2] (po, 0.1 mg/kg, 4 hours, control 1.00), 2.72. Moreover, the “Amount of Na+ excreted” value in assay [2] (iv, 3 μg/kg, n = 5, 4 hours, control 2.23 ± 0.61) was determined as 3.71 mEq/kg. The compound further showed an Amount of urine in assay [2] (iv, 3 μg/kg, n = 5, urine over 4 hours, control 14.5 ± 1.8) of 26.4 mL/kg. Also, the “Increase in amount of K+ excreted Δ(%)” value in assay [2] (po, 0.01 mg/kg, 4 hours) is 11%; in assay [2] (po, 0.1 mg/kg, 4 hours), -9%. The “Increase in amount of Na+ excreted Δ(%)” value in assay [2] (po, 0.01 mg/kg, 4 hours) was 139%; in assay [2] (po, 0.1 mg/kg, 4 hours), 148%. Moreover, the “Increase in amount of urine Δ(%)” value is listed as 99% in assay [2] (po, 0.01 mg/kg, 4 hours) and 105% in assay [2] (po, 0.1 mg/kg, 4 hours). Moreover, the “Amount of creatinine in blood serum” value was 2.00 ± 0.21 mg/dL in assay [3] (0.01 mg/kg, control 3.90 ± 0.24 (compounds 6, 7)) and 2.32 ± 0.16 mg/dL in assay [3] (0.1 mg/kg, control 4.55 ± 0.24 (compound 5)). In addition, the “Amount of uria nitrogen in blood serum” value in assay [3] (0.01 mg/kg, control 124.9 ± 7.5 (compounds 6, 7)) worked out at 69.9 ± 8.4 mg/dL; in assay [3] (0.1 mg/kg, control 137.2 ± 5.0 (compound 5)), 64.4 ± 4.5 mg/dL. The “Recall trial average reaction latency” value was determined as 404.3 ± 43.5 s in assay [4] (0.08 mg/kg), 438.8 ± 43.0 s in assay [4] (0.31 mg/kg), 445.5 ± 49.5 s in assay [4] (1.25 mg/kg) and 430.5 ± 43.2 s in assay [4] (5.0 mg/kg).
